# Reference: publication PMC10458893, “Design of Protegrin-1 Analogs with Improved Antibacterial Selectivity” (Pharmaceutics, 2023)
# Like-named read-outs stand apart in the source and are kept apart here. Positions of bridges follow the written chain, without caps; N, C: chain ends. Residues, ends and D or L forms follow the SMILES beside them.
# Key:
# [1] = test system: Acinetobacter baumannii (strain XDR CI 2675); format: cell-based
# Protocol: (§1) The antimicrobial activity of the peptides was determined using two-fold serial dilutions in sterile 96-well flat-bottom polystyrene microplates (Eppendorf, Hamburg, Germany) (Cat. No. 0030730011), as previously described. The following strains of bacteria were used: E. coli ATCC 25922, E. coli ML35p (ATCC collection), E. coli BW 25113 (Keio collection), Pseudomonas aeruginosa PAO1 (ATCC collection), P. aeruginosa ATCC 27853, Klebsiella pneumoniae ATCC 700603, Staphylococcus aureus 209P (ATCC collection), S. aureus ATCC 29213, and Micrococcus luteus B-1314 (VKM collection). Acinetobacter baumannii (strain XDR CI 2675) was provided by the I.M. Sechenov First Moscow State Medical University hospital. After a 24 h incubation period, the metabolic activity of the bacteria was assessed by adding 20 µL of a redox indicator, resazurin (Sigma-Aldrich, St. Louis, MO, USA), at a concentration of 0.1 mg/mL, to the wells. The plate was then incubated for a further two hours. The minimum inhibitory concentration (MIC) was determined as the lowest concentration of the peptide at which no color change in the resazurin indicator was observed. The results were presented as median values, which were determined based on at least three independent experiments carried out in triplicate.
# [2] = test system: E. coli ATCC 25922; format: cell-based; details: ATCC 25922, 24 h
# Protocol: as §1
# [3] = test system: E. coli BW 25113; format: cell-based; details: two-fold serial dilutions, 24 h incubation, resazurin read-out; median of at least three independent experiments in triplicate
# Protocol: as §1
# [4] = test system: E. coli ML35p; format: cell-based
# Protocol: as §1
# [5] = test system: P. aeruginosa ATCC 27853; format: cell-based, Pseudomonas aeruginosa; details: ATCC 27853, 24 h
# Protocol: as §1
# [6] = test system: P. aeruginosa PAO1; format: cell-based, Pseudomonas aeruginosa; details: PAO1, 24 h
# Protocol: as §1
# [7] = test system: K. pneumoniae ATCC 700603; format: cell-based, Klebsiella pneumoniae; details: ATCC 700603, 24 h
# Protocol: as §1
# [8] = test system: S. aureus 209P; format: cell-based, Staphylococcus aureus; details: 24 h
# Protocol: as §1
# [9] = test system: S. aureus ATCC 29213; format: cell-based, Staphylococcus aureus; details: ATCC 29213, 24 h
# Protocol: as §1
# [10] = test system: M. luteus B-1314; format: cell-based, Micrococcus luteus; details: B-1314, 24 h
# Protocol: as §1
# [11] = test system: freshly isolated human erythrocytes (hRBCs); test: Hemolysis assay (hemoglobin release); format: cell-based
# From the text: To assess the hemolytic activity of the compounds, freshly isolated human erythrocytes (hRBCs) were used according to the methodology described in a previous study. Melittin was used as a positive peptide control that induces significant hemolysis. Isotonic phosphate buffer (PBS) served as a negative control, while 0.1% Triton X-100 solution was used as a control for complete hemolysis.
# [12] = test system: human keratinocyte cell line (HaCaT); test: Cytotoxicity MTT assay; format: cell-based
# Protocol: In order to evaluate the cytotoxicity of the peptides against a human keratinocyte cell line (HaCaT, Cat. No. 300493) (Cell Lines Service, Köln, Germany), the colorimetric 3-(4,5-dimethylthiazol-2-yl)-2,5-diphenyltetrazolium bromide (MTT) dye reduction assay was performed, as described in a previous publication. Wells containing no peptide were used as a 100% survival control. Each peptide was tested in two separate experiments to ensure the reliability of the results.
Structure (SMILES),"MIC, A. baumannii ([1]; strain XDR CI 2675, 24 h)","MIC, E. coli ATCC 25922 [2]","MIC, E. coli BW 25113 [3]","MIC, E. coli ML35p ([4]; ML35p, 24 h)","MIC, P. aeruginosa ATCC 27853 [5]","MIC, P. aeruginosa PAO1 [6]","MIC, K. pneumoniae ATCC 700603 [7]","MIC, S. aureus 209P [8]","MIC, S. aureus ATCC 29213 [9]","MIC, M. luteus B-1314 [10]","Hemolytic activity, % (64 μM) ([11]; red cells of human, 64)","Cell Viability, % (128 μM) ([12]; 18 h, 128)","MIC, A. baumannii ([1]; strain XDR CI 2675, two-fold serial dilutions, 24 h incubation, resazurin read-out, median of at least three independent experiments in triplicate)","MIC, E. coli ML35p ([4]; two-fold serial dilutions, 24 h incubation, resazurin read-out, median of at least three independent experiments in triplicate)","Hemolytic activity, % (64 μM) ([11]; 64 μM peptide, 1.5 h incubation, hemoglobin release, fresh hRBCs, 0.1% Triton X-100 = complete hemolysis, mean ± SD of two independent experiments)","Cell Viability, % (128 μM) ([12]; 128 μM peptide, HaCaT, MTT assay, 18 h incubation (legend; text says 24 h), mean ± SD of two independent experiments)"
"CC(C)[C@H](NC(=O)[C@@H]1CSSC[C@H](NC(=O)[C@H](C)NC(=O)[C@H](CCCNC(=N)N)NC(=O)CNC(=O)CNC(=O)[C@@H](N)CCCNC(=N)N)C(=O)N[C@@H](Cc2ccc(O)cc2)C(=O)N[C@H]2CSSC[C@H](NC(=O)[C@H](Cc3ccccc3)NC(=O)[C@H](CCCNC(=N)N)NC(=O)[C@H](CCCNC(=N)N)NC(=O)[C@H](CCCNC(=N)N)NC2=O)C(=O)N[C@@H](C)C(=O)N1)C(=O)NCC(=O)N[C@@H](CCCNC(=N)N)C(=O)O [[L5A,V14A]] (H-RGGRACYCRRRFCACVGR-OH; disulfide 6-15, 8-13; N-terminus and C-terminus assumed)",0.25 µM,0.5 µM,0.5 µM,0.5 µM,1 µM,1 µM,8 µM,4 µM,>32 µM,4 µM,4.2 (±1.08) %,38.3 (± 7.19) %,–,–,–,–
"CC(C)C[C@H](NC(=O)[C@H](CCCNC(=N)N)NC(=O)CNC(=O)CNC(=O)[C@@H](N)CCCNC(=N)N)C(=O)N[C@H]1CSSC[C@@H](C(=O)N[C@H](C(=O)NCC(=O)N[C@@H](CCCNC(=N)N)C(=O)O)C(C)C)NC(=O)[C@H](C(C)C)NC(=O)[C@@H]2CSSC[C@H](NC(=O)[C@H]([C@@H](C)O)NC1=O)C(=O)N[C@@H](CCCNC(=N)N)C(=O)N[C@@H](CCCNC(=N)N)C(=O)N[C@@H](CCCNC(=N)N)C(=O)N[C@@H](Cc1ccccc1)C(=O)N2 [[Y7T]] (H-RGGRLCTCRRRFCVCVGR-OH; disulfide 6-15, 8-13; N-terminus and C-terminus assumed)",–,1 µM,0.5 µM,–,2 µM,2 µM,8 µM,16 µM,16 µM,4 µM,4.0 (±2.54) %,15.0 (± 1.62) %,0.5 µM,0.5 µM,–,–
"CC[C@H](C)[C@H](NC(=O)CN)C(=O)NCC(=O)N[C@@H](C)C(=O)N[C@H](C(=O)N[C@@H](CC(C)C)C(=O)N[C@@H](CCCCN)C(=O)N[C@H](C(=O)N[C@@H](CC(C)C)C(=O)N[C@H](C(=O)N[C@H](C(=O)NCC(=O)N[C@@H](CC(C)C)C(=O)N1CCC[C@H]1C(=O)N[C@@H](C)C(=O)N[C@@H](CC(C)C)C(=O)N[C@H](C(=O)N[C@@H](CO)C(=O)N[C@@H](Cc1c[nH]c2ccccc12)C(=O)N[C@H](C(=O)N[C@@H](CCCCN)C(=O)N[C@@H](CCCNC(=N)N)C(=O)N[C@@H](CCCCN)C(=O)N[C@@H](CCCNC(=N)N)C(=O)N[C@@H](CCC(N)=O)C(=O)N[C@@H](CCC(N)=O)C(N)=O)[C@@H](C)CC)[C@@H](C)CC)[C@@H](C)O)[C@@H](C)O)C(C)C)C(C)C [Melittin, reference compound]",–,–,–,–,–,–,–,–,–,–,–,–,–,–,96.0 (±7.12) %,4.1 (± 4.07) %
